Common to all, as to assay type: cell-based, human
Assay [1] concerns iPS-derived islet-like clusters. Put plainly: C-peptide release assay, glucose stimulated secretion, ELISA. The note with it: for C-peptide secretion in response to glucose challenge when the agent is left out of the cocktail: HCF#1-derived islet-like clusters differentiated without ILV or without GLP-1, glucose 10 mM and 27.7 mM. The protocol:
(§1) (R&D systems) and 100 ng/mL activin A (Peprotech) in advanced RPMI (A-RPMI, Invitrogen) with Pen/Strep for 1 day, followed by treatment with 100 ng/mL activin A in A-RPMI supplemented with 0.2% FBS (Invitrogen) for two days. At step two, cells were cultured in A-RPMI medium containing 50 ng/mL FGF10 (R&D systems), 0.25 μM KAAD-cyclopamine (CYC), and 2% FBS for 2 days. Cells were then treated with 50 ng/mL FGF10, 0.25 μM CYC, and 2 μM all-trans Retinoic Acid (RA) (Sigma) in DMEM (Invitrogen) supplemented with Pen/Strep, 1× B27 supplement (Invitrogen) for 4 days at step three. Cells were then cultured in the presence of 50 ng/mL FGF10, 300 nM ILV (Axxora), and 55 nM GLP-1 (Sigma) in DMEM with 1 × B27 for 4 days at step four. In step five, differentiation medium included 10 μM DAPT (Sigma) and 55 nM GLP-1 in DMEM with 1× B27 and culture lasted 6 days. Finally, in step six, cells were cultured in the presence of 50 ng/mL hepatocyte growth factor (HGF) (R&D systems), 50 ng/mL Insulin-like growth factor 1 (IGF-1) (R&D systems) and 55 nM GLP-1 in CMRL-1066 medium (Invitrogen) with 1× B27 for 6 days. All experiments were repeated more than three times.
A C-peptide release assay was performed by incubating derived islet-like clusters in Krebs-Ringer solution with bicarbonate and HEPES (KRBH; 129 mM NaCl, 4.8 mM KCl, 2.5 mM CaCl2, 1.2 mM KH2PO4, 1.2 mM MgSO4, 5 mM NaHCO3, 10 mM HEPES, and 0.1% (wt/vol) BSA). […] C-peptide or proinsulin levels were determined using an ultrasensitive C-peptide/proinsulin ELISA kit (Alpco Diagnostics).
C-peptide secretion from iPS-derived islet-like clusters in response to glucose challenge, the critical physiological function of pancreatic beta cells, was analyzed. To determine whether islet-like cells are capable of C-peptide secretion in response to glucose induction, cells were exposed to increasing concentrations of glucose and secreted C-peptide was measured by ELISA. […]
(In general: In an ELISA, binding on a coated surface is turned into a signal by an enzyme label.)

In assay [2] the test system is iPS-derived pancreatic endoderm cells. As to the kind of experiment: RT-PCR of pancreatic hormone and islet marker genes during guided differentiation. Particulars: following inclusion of GLP-1 with HGF, IGF and DAPT. The protocol: as §1, with “Finally, in step six, cells were cultured in the presence of 50 ng/mL hepatocyte growth factor (HGF) (R&D systems), 50 ng/mL Insulin-like growth factor 1 (IGF-1) (R&D systems) and 55 nM GLP-1 in CMRL-1066 medium (Invitrogen) with 1× B27 for 6 days. All experiments were repeated more than three times.” left out
To determine the expression of endocrine-specific transcription factors and pancreas-specific genes throughout differentiation, the gene expression pattern was analyzed at each stage of differentiation. RT-PCR detected high levels of FOXA2 expression after 3 days of differentiation, confirming induction of definitive endoderm cells (FIG. 8A). […]

In assay [3] the test system is iPS-derived definitive endoderm cells. Put plainly: Induction of pancreatic endoderm from iPS-derived definitive endoderm, immunofluorescence for PDX1, NEUROD1, NGN3. The note with it: definitive endoderm cells treated with FGF10, RA and CYC in the presence of ILV; without ILV low levels of PDX1 expression. The protocol:
For immunostaining, iPS cells were fixed for 20 minutes at room temperature (RT) in 4% paraformaldehyde (PFA) in PBS, washed in PBS, and blocked for 30 minutes with 5% FBS in PBST (PBS with 0.1% Tween-20 (Sigma). Cells were stained with primary antibodies overnight at 4° C., rinsed by PBS, and incubated with secondary antibodies 1 hour at RT (Martinez-Fernandez et al., Circ. Res., 105:648-656 (2009)). Cells at different stages of differentiation were fixed and stained with primary and secondary antibodies. Primary and secondary antibodies used for characterization of iPS and derived cells were: SSEA-1, SSEA-4, TRA-1-60, TRA-1-81 (Millipore #SCR001), OCT4 (Cell Signaling Technology #2750), SOX2 (Cell Signaling Technology #2748), KLF4 (Abcam #ab26648), NANOG (Abcam #ab21624), mouse anti-S0X17 (R&D Systems #MAB1924), rabbit anti-HNF3 beta/FOXA2 (Millipore #07-633), rabbit anti-PDX1 (Santa Cruz Biotechnology #sc-25403), rabbit anti-NGN3 (Millipore #AB5684), rabbit anti-NEUROD1 (Abcam #16508), mouse anti-insulin (Sigma #I2018), rabbit anti-C-peptide (Cell Signaling Technology #4593), rabbit anti-Insulin (Cell Signaling Technology #4590), mouse anti-proinsulin C-peptide (Millipore #CBL94), mouse anti-glucagon (Abcam #ab10988), MafA (Santa Cruz Biotechnology #sc-66958), and rabbit anti-somatostatin (Dako #A0566). […]

Where no end group is shown, it is not given here.

For “glucagon like peptide-1 (HAEGTFTSDVSSYLEGQAAKEFIAWLVKGR; ends and bridges not checked; UniProt P01275 98-127, looked up) [GLP-1, GLP-1 polypeptide (Sigma), used at 55 nM in the differentiation medium]”, the “C-peptide secretion in response to glucose challenge when the agent is left out of the cocktail” value in assay [1] is recorded as “failed to secrete C-peptide”. Besides, the “gene expression of pancreatic hormones and islet markers by RT-PCR” value in assay [2] was “positive gene expression of pancreatic hormones”.

With `CC(C)[C@H]1C(=O)N[C@H](CO)Cc2c[nH]c3cccc(c23)N1C` [ILV, indolactam V], in assay [3], the “expression of pancreatic endoderm markers” value is “resulted in cells expressing PDX1, NEUROD1, and NGN3”. For the same molecule, in assay [1], the “C-peptide secretion in response to glucose challenge when the agent is left out of the cocktail” value is listed as “failed to secrete C-peptide”.

For Exendin-4, the C-peptide secretion entry in assay [1] (pancreatic endoderm treated with HGF, IGF, Exendin-4 and DAPT, data not shown) was “failed produce detectable C-peptide secretion”.

The record behind these values is patent US9932561B2, “Differentiating induced pluripotent stem cells into glucose-responsive, insulin-secreting progeny” (Mayo Foundation for Medical Education and Research, priority 2011, dated 2018).
